Laboratory results published in paper PMC6614837 (Nucleic Acids Research, 2019).

Legend:
[1] = target: T1, RNase P holoenzyme from Thermotoga maritima (Thermotoga maritima, UniProt Q9X1H4); test: Real-time fluorescence-based RNase P activity assay with bipartite pre-tRNA substrate; format: biochemical; conditions: fluorescent bipartite pre-tRNA substrate, holoenzyme 33 nM, 10% PEG 200 in place of DMSO
T1 construct: made in house
T1 sequence (Q9X1H4 1-117): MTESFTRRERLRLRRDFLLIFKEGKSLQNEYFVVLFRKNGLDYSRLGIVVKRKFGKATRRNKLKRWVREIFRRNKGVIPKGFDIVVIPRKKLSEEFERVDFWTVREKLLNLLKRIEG
Method: (§1) The reconstitution of the RNase P holoenzyme was performed as described in ([40],[19]). This protocol produces a homogeneous and functional ribozyme that can be crystallized by mixing P RNA and P protein in a 1:1.1 molar ratio in 1× TH buffer (33 mM Tris–HCl, 66 mM HEPES, pH 7.4) and 400 mM ammonium acetate (AmOAc). The mixture was heated to 95°C for 2 min in a water bath, then chilled on ice for 2 min, after which MgCl2 was added to a final concentration of 100 mM. […] This higher concentration was used in all experiments described herein. The holoenzyme was further incubated at 50°C for 10 min and 37°C for 40 min. The final concentration of holoenzyme was 333 nM (35.6 μg/ml of P RNA and 4.7 μg/ml of P protein).
The bipartite pre-tRNA substrate derived from pre-tRNA^Phe from T. maritima (Supplementary Figure S13) was designed for the ease of chemical synthesis and conceived from the fact that the anticodon loop is not required for RNase P recognition (Reiter et al.). As for the Mh substrate, fluorescent bipartite pre-tRNA was coupled to Black Hole Quencher 1 (BHQ1) at the 5′-end of the 5′ oligo, and to Alexa Fluor 488 at the 3′-end of the 3′ oligo (see Supplementary Table S1). The probes were purchased from Integrated DNA Technologies (IDT). A requested scale of 250 nmol yielded 27.4 nmol (0.36 mg) for the 5′ oligo and 3.8 nmol (50 μg) for the 3′ fluorescent oligo. Before use, the probes were diluted from a 100 μM stock (dissolved in water) and assembled by mixing and heating to 3.6 μM in activity buffer L (Tris–HCl pH 7.4 33 mM, HEPES 66 mM, 100 mM AmOAc and 10 mM MgCl2).
Reactions were performed in a total volume of 20 μl. Pipetting was done by hand using multichannel pipettes. First, an 18 μl reaction mixture containing 16.5 μl of activity buffer (H for Mh or L supplemented with 10% PEG 200 for bipartite pre-tRNA) and 270 nM (Mh) or 135 nM (bipartite pre-tRNA) (1.5 or 0.7 μl of the 3.6 μM stock) of the fluorescent substrate probe was pre-incubated on ice for at least 5 m in a black polystyrene 384-well microtiter microplate with a flat transparent bottom (Corning ref 3540). The holoenzyme was then added at a final concentration of 33 nM (2 μl of a 333 nM stock) in 1× TH buffer and mixed. Kinetic activity was monitored in a Synergy MX Multimode Detector (BioTek) at 37°C with rapid agitation. At least 20 readings were taken per well every 15 s. The probe was excited at 485 nm, and its emission was monitored at 535 nm with an integration time of 1 s. From the plots of relative fluorescent units (RFU) versus time, linear regression was used to determine the slopes in the linear portion of the curves, using at least 12 data points to obtain initial velocities. Non-linear fitting to obtain the Michaelis–Menten parameters was performed using GraphPad Prism® 6.01 software. […]

[2] = target: T1, RNase P holoenzyme from Thermotoga maritima; test: Real-time fluorescence-based (FRET) RNase P activity assay with minihelix (Mh) substrate; format: biochemical; conditions: fluorescent Mh substrate 270 nM, holoenzyme 33 nM, 10% DMSO, 37°C, 400 mM AmOAc, 100 mM MgCl2
Method: as §1
The minihelix (Mh) substrate (Figure 1A) was adopted from a previously characterized RNase P substrate, pMini3bpUG ([32],[33]) and coupled to either Black Hole Quencher 1 (BHQ1) or Black Hole Quencher 2 (BHQ2) at the 5′-end and Alexa Fluor 488 at the 3′-end. This probe was purchased either from Sigma-Aldrich or Integrated DNA Technologies (IDT). A requested scale of […] yielded between 6.3 and 20 nmol (57.5 to 181 μg, enough for 1300–4000 reactions depending on the experimental substrate concentration). Before use, the minihelix was diluted from a 100 μM stock (dissolved in water) to 3.6 μM in activity buffer H (33 mM Tris–HCl, 66 mM HEPES, pH 7.4, 400 mM AmOAc and 100 mM MgCl2).
Reactions were performed in a total volume of 20 μl. Pipetting was done by hand using multichannel pipettes. First, an 18 μl reaction mixture containing 16.5 μl of activity buffer (H for Mh or L supplemented with 10% PEG 200 for bipartite pre-tRNA) and 270 nM (Mh) or 135 nM (bipartite pre-tRNA) (1.5 or 0.7 μl of the 3.6 μM stock) of the fluorescent substrate probe was pre-incubated on ice for at least 5 m in a black polystyrene 384-well microtiter microplate with a flat transparent bottom (Corning ref 3540). The holoenzyme was then added at a final concentration of 33 nM (2 μl of a 333 nM stock) in 1× TH buffer and mixed. Kinetic activity was monitored in a Synergy MX Multimode Detector (BioTek) at 37°C with rapid agitation. At least 20 readings were taken per well every 15 s. The probe was excited at 485 nm, and its emission was monitored at 535 nm with an integration time of 1 s. From the plots of relative fluorescent units (RFU) versus time, linear regression was used to determine the slopes in the linear portion of the curves, using at least 12 data points to obtain initial velocities. Non-linear fitting to obtain the Michaelis–Menten parameters was performed using GraphPad Prism® 6.01 software.
Supplementary Figure 3. FRET assays of RNase P with the fluorescent substrate are reproducible. (A) Representative plots of kinetic assays performed in a single run. The standard assay (SA), (+), was performed at 37° C in a total volume of 20 µL and contained RNase P holoenzyme at 33 nM, substrate minihelix (Mh) at 270 nM, 10% DMSO and activity buffer (AB).
The negative control assay (-) contained 100 mM CaCl2 in place of MgCl2. Ten to twelve wells were monitored simultaneously in a typical assay. (B) Zoomed view of the linear region of the kinetic assays shown in panel A. Fluorescence readings were performed every 15-20 seconds.
Linear regression calculations were done using the GraphPad Prism 7 software. (C) The coefficient Z’-factor (1) was used as an indicator of reproducibility and was calculated based on the relative fluorescence units (RFU) in the plateau phase (taken at 20 minutes). The Z’-factor has a […]
presented in this work were either measured in triplicate or confirmed in subsequent assays. (D) […]
assay is robust. The IC50 values reported in Figures 1C and 2 were calculated according to this kinetic parameter. There is a negative drift in fluorescence in the case of the negative control.
However, it should be noted that the mean value of it (-279) is much smaller than the signal of the […]
positive control (3397). […]

[3] = tested on: 3'-biotinylated minihelix (Mh; pMini3bpUG) (RNA, hairpin) GAUCUGAAUGCGGAAACGCGCCAC; test: biolayer interferometry; conditions: Mg2+ 10 mM, NH4+ 100 mM (ammonium acetate); 20 mM HEPES pH 7.4, DMSO, 30°C; compound 15.6-500 µM

Structure (SMILES): CN(C)c1ccc(C(=C2C=CC(=[N+](C)C)C=C2)c2ccc(N(C)C)cc2)cc1 [Gentian violet, tris(4-(dimethylamino)phenyl)methylium chloride, reference compound]
- IC50 [1]: 16.2 ± 2.1 µM
- IC50 [2]: 7.3 ± 1.6 µM
- KD [3]: 8 µM
